Our source for the Activity values is ChEMBL document CHEMBL4616686, “PROTAC Compounds Targeting α-Synuclein Protein for Treating Neurogenerative Disorders: Alzheimer's and Parkinson's Diseases” (ACS Med Chem Lett, 2020).

Some results are limits rather than exact numbers.

For the assay, the species on record is Homo sapiens. Nature of the assay: Protac activity at E3 ubiquitin ligase/alpha-syn expressed in human HEK293/TREx A53T cells assessed as alpha-synuclein degradation measured as amount of protein remaining at 1 uM by ELISA relative to control. It counts as cell-based.
Turning to `CNc1ccc(-c2nc3ccc(OCCOCCOCCOCCOCCOCCOCC(=O)N[C@H](C(=O)N4C[C@H](O)C[C@H]4C(=O)N[C@@H](C)c4ccc(-c5scnc5C)cc4)C(C)(C)C)cc3s2)cc1`, the Activity is under 35%. The same measure for `CNc1ccc(-c2nc3ccc(OCCOCCOCCOCCOCCOCC(=O)N[C@H](C(=O)N4C[C@H](O)C[C@H]4C(=O)N[C@@H](C)c4ccc(-c5scnc5C)cc4)C(C)(C)C)cc3s2)cc1`: under 35%; for `Cc1ncsc1-c1ccc([C@H](C)NC(=O)[C@@H]2C[C@@H](O)CN2C(=O)[C@@H](NC(=O)CN2CCN(CCN3CCC(O[C@H]4C[C@H](Oc5ccc6c(c5)Sc5cc([N+](=O)[O-])ccc5N6)C4)CC3)CC2)C(C)(C)C)cc1`: under 35%.

As to `O=C1CCC(N2C(=O)c3ccc(N4CCN(CCCO[C@H]5C[C@H](Oc6ccc7c(c6)Sc6cc([N+](=O)[O-])ccc6N7)C5)CC4)cc3C2=O)C(=O)N1` (stereo partly specified), the Activity is 35 to 70%.

Regarding `CNc1ccc(-c2nc3ccc(OCCOCCOCC(=O)N[C@H](C(=O)N4C[C@H](O)C[C@H]4C(=O)N[C@@H](C)c4ccc(-c5scnc5C)cc4)C(C)(C)C)cc3s2)cc1`, the Activity is under 35%.

Turning to `Cc1ncsc1-c1ccc([C@H](C)NC(=O)[C@@H]2C[C@@H](O)CN2C(=O)[C@@H](NC(=O)COCCOCCOc2ccc(CN3C(=O)/C(=C/C=C/c4ccc([N+](=O)[O-])cc4)c4ccccc43)cc2)C(C)(C)C)cc1`, the Activity lay within 35 to 70%.
